The assay concerns the target T1, EtLsc (Erwinia tasmaniensis levansucrase) (Erwinia tasmaniensis, UniProt B2VCC3).
T1 construct: gene lsc; lsc gene amplified from Et1/99, pMCSG49 vector, E. coli BL21(DE3) Star pLysS; His6 tag cleaved with TEV protease; IMAC and size exclusion; catalytic triad Asp46, Asp203, Glu287
In words: microscale thermophoresis, label-free (Monolith NT.LabelFree). In kind it is binding. In general terms: MST reads how a fluorescent partner responds to local heating, with and without ligand.

As a reminder, the Kd is the free concentration of one partner at which half of the binding sites on the other are occupied at equilibrium, for simple one-to-one binding.

T1 sequence (B2VCC3 entry or part of it): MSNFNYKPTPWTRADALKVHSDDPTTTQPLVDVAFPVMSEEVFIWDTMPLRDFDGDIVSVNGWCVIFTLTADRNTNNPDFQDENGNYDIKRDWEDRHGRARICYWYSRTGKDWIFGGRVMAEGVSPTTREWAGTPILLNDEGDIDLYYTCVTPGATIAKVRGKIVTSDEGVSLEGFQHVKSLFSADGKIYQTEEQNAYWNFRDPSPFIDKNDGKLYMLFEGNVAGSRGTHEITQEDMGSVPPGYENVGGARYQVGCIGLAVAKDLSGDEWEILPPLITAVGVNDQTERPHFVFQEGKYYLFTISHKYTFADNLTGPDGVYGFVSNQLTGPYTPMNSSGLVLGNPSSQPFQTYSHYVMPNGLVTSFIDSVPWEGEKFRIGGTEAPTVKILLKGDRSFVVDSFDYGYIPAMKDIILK

Turning to `OCC[C@H](O)CO` (mixture of isomers) [(S)-1,2,4-butanetriol], binding was put at a Kd of 84.9 ± 13.4 mM.

Source of the values: article PMC9350837, “Erwinia tasmaniensis levansucrase shows enantiomer selection for (S)-1,2,4-butanetriol” (Acta Crystallographica. Section F, Structural Biology …, 2022).
